*1 amine or outer side, *2 acyl side, *3 side chain or, on linkers, in order; H or OH if unused. Where a SMILES comes first, the peptide text is derived from it. [ ]: non-standard residue; d: D form. The star is where a group is joined. X2 = O=C(O)CCC(NC(=O)NC(CCCCN*)C(=O)O)C(=O)O; 2Nal = N[CH](Cc1ccc2ccccc2c1)C(=O)O; X1 = O=C(C1CCC(N[*:1])CC1)[*:2]; Mercaptoacetyl = O=C(CS)*
What was measured:
mice = test: Toxicologic investigation (OECD guideline)
Experimental: The evaluation was conducted using well-known standard methods ([16],[17]).

[1] = tested on: patients with metastatic castration-resistant prostate cancer; test: Clinical imaging and therapy under compassionate care; assay type: in vivo, humans
Experimental: After giving written informed consent, 3 patients with metastatic castration-resistant prostate cancer received PSMA-radioligand therapy (RLT) and the related companion diagnostic under compassionate-care regulations. Prospective clinical trial registration is not required for compassionate care that is performed under an individual medical indication.
The timeline of imaging time points is illustrated in Figure 2.

Compound | mortality (mice; mice) | dose without toxicologic effect (mice; mice, third-party preclinical research organization) | organ weights or macroscopic observations (mice; terminal or recovery euthanasia) | liver-to-kidney uptake ratio compared with PSMA-617 ([1]; initially, intraindividual comparison) | clearance route ([1]; dual-photopeak imaging)
O=C(O)CCC(NC(=O)NC(CCCCNC(=O)C(Cc1ccc2ccccc2c1)NC(=O)C1CCC(NC(=O)C(CO)NC(=O)C(CO)NC(=O)C(CO)NC(=O)CS)CC1)C(=O)O)C(=O)O (centres unmarked) [PSMA-GCK01] (Mercaptoacetyl-SSS[X1][2Nal]-X2; configuration not given here) | No test article–related mortality | up to 2 mg/kg | No differences | higher | 
O=C([O-])CN1CCN(CC(=O)[O-])CCN(CC(=O)NCC2CCC(C(=O)N[C@@H](Cc3ccc4ccccc4c3)C(=O)NCCCC[C@H](NC(=O)N[C@@H](CCC(=O)O)C(=O)O)C(=O)O)CC2)CCN(CC(=O)[O-])CC1.[177Lu+3] (some centres unmarked) [^177Lu-PSMA-617, reference compound] |  |  |  |  | combined renal and hepatointestinal clearance route

— PMC10315696, “PSMA-GCK01: A Generator-Based ^99mTc/^188Re Theranostic Ligand for the Prostate-Specific Membrane Antigen” (Journal of Nuclear Medicine, 2023)
